According to PubChem BioAssay AID330 (DTP/NCI, 2004):
“And” between values parts separate entries of the source, which are not always exact repeats. Equal values may be shown once. Toxic doses and inconclusive results are not listed. The calls were made as follows: active = survival T/C of 150% or more; inactive = T/C below 125% in these data.

Tested on: P388 leukemia ip, CD2F1 mice, survival T/C
Test: NCI In Vivo Anticancer Drug Screen. Data for tumor model P388 Leukemia (intraperitoneal) in CD2F1 (CDF1) mice
Conditions: endpoint: median survival time, higher = longer survival
Method in brief: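 Mice carrying the transplanted tumor received test compound or vehicle. Survival was recorded in each group, and the value is the treated-group measurement divided by that of the vehicle-treated control group.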

[1] = dose: 50.0 mg/kg/injection, schedule: Q01DX009 (ip), vehicle: saline
[2] = dose: 100.0 mg/kg/injection, schedule: Q01DX009 (ip), vehicle: saline
[3] = dose: 200.0 mg/kg/injection, schedule: Q01DX009 (ip), vehicle: saline
[4] = dose: 50.0 mg/kg/injection, schedule: Q01DX009 (ip), vehicle: Klucel (hydroxypropylcellulose) (HPC)
[5] = dose: 100.0 mg/kg/injection, schedule: Q01DX009 (ip), vehicle: Klucel (hydroxypropylcellulose) (HPC)
[6] = dose: 200.0 mg/kg/injection, schedule: Q01DX009 (ip), vehicle: Klucel (hydroxypropylcellulose) (HPC)
[7] = dose: 60.0 mg/kg/injection, schedule: Q01DX005 (ip), vehicle: saline with Tween-80
[8] = dose: 120.0 mg/kg/injection, schedule: Q01DX005 (ip), vehicle: saline with Tween-80
[9] = dose: 240.0 mg/kg/injection, schedule: Q01DX005 (ip), vehicle: saline with Tween-80
[10] = dose: 100.0 mg/kg/injection, schedule: Q01DX001 (ip), vehicle: Klucel (hydroxypropylcellulose) (HPC)
[11] = dose: 200.0 mg/kg/injection, schedule: Q01DX001 (ip), vehicle: Klucel (hydroxypropylcellulose) (HPC)
[12] = dose: 400.0 mg/kg/injection, schedule: Q01DX001 (ip), vehicle: Klucel (hydroxypropylcellulose) (HPC)
[13] = dose: 100.0 mg/kg/injection, schedule: Q01DX001 (ip), vehicle: saline
[14] = dose: 50.0 mg/kg/injection, schedule: Q01DX005 (ip), vehicle: saline with Tween-80
[15] = dose: 100.0 mg/kg/injection, schedule: Q01DX005 (ip), vehicle: saline with Tween-80
[16] = dose: 200.0 mg/kg/injection, schedule: Q01DX005 (ip), vehicle: saline with Tween-80
[17] = dose: 60.0 mg/kg/injection, schedule: Q01DX005 (ip), vehicle: Klucel (hydroxypropylcellulose) (HPC)
[18] = dose: 120.0 mg/kg/injection, schedule: Q01DX005 (ip), vehicle: Klucel (hydroxypropylcellulose) (HPC)
[19] = dose: 240.0 mg/kg/injection, schedule: Q01DX005 (ip), vehicle: Klucel (hydroxypropylcellulose) (HPC)

Measured: T/C

CC1N2CCc3ccccc3C2C2c3ccccc3CCN21 (centres undefined)
inactive: dose: 12.5 mg/kg/injection, schedule: Q01DX001 (ip), vehicle: suspension in saline 111 % of control | dose: 25.0 mg/kg/injection, schedule: Q01DX001 (ip), vehicle: suspension in saline 111 % of control | dose: 50.0 mg/kg/injection, schedule: Q01DX001 (ip), vehicle: suspension in saline 102 % of control and 118 % of control

O=C(O)c1ccc(O)c(O)c1
inactive: [1] 104 % of control and 111 % of control | [2] 100 % of control and 103 % of control | [3] 103 % of control and 98 % of control | dose: 400.0 mg/kg/injection, schedule: Q01DX009 (ip), vehicle: saline 103 % of control and 118 % of control | dose: 600.0 mg/kg/injection, schedule: Q01DX009 (ip), vehicle: saline 100 % of control

CN(C)CCCC12OC(c3ccccc31)C(O)c1ccccc12 (centres undefined)
inactive: dose: 25.0 mg/kg/injection, schedule: Q01DX009 (ip), vehicle: Klucel (hydroxypropylcellulose) (HPC) 102 % of control | [4] 103 % of control | [5] 105 % of control | [6] 94 % of control

Cc1ccccc1C(C)(O)Cc1nccn1Cc1ccccc1 (centres undefined)
inactive: [7] 99 % of control | [8] 104 % of control | [9] 96 % of control

CSc1cccc(NC(=O)Nc2ccccc2C(N)=O)c1
inactive: [4] 94 % of control | [5] 103 % of control | [6] 94 % of control

CC1(CC(=O)O)OC(c2ccccc2)=CC1=O (centres undefined)
inactive: [10] 98 % of control | [11] 92 % of control | [12] 92 % of control

O=c1[nH]nnc2c1ncn2C1OC(CO)C(O)C1O (centres undefined)
inactive: dose: 12.5 mg/kg/injection, schedule: Q01DX001 (ip), vehicle: saline 99 % of control | dose: 25.0 mg/kg/injection, schedule: Q01DX001 (ip), vehicle: saline 106 % of control | dose: 50.0 mg/kg/injection, schedule: Q01DX001 (ip), vehicle: saline 100 % of control | [13] 99 % of control

NC(=O)CCCCCBr
inactive: [4] 98 % of control | [5] 95 % of control | [6] 90 % of control

Cc1ccc(S(=O)(=O)N/N=C/c2c(Cl)n(C(=O)c3ccccc3F)c3ccccc23)cc1
inactive: dose: 50.0 mg/kg/injection, schedule: Q01DX001 (ip), vehicle: Klucel (hydroxypropylcellulose) (HPC) 93 % of control | [10] 95 % of control | [11] 90 % of control | [12] 86 % of control

Cc1ccc(NC(=O)c2cc(C)ccc2N)cc1
inactive: [14] 91 % of control | [15] 91 % of control | [16] 101 % of control

CCOC(=O)C1Cc2c([nH]c(=O)[nH]c2=O)OC1(C)c1ccccc1 (centres undefined)
inactive: dose: 50.0 mg/kg/injection, schedule: Q01DX005 (ip), vehicle: Klucel (hydroxypropylcellulose) (HPC) 103 % of control | dose: 100.0 mg/kg/injection, schedule: Q01DX005 (ip), vehicle: Klucel (hydroxypropylcellulose) (HPC) 98 % of control | dose: 200.0 mg/kg/injection, schedule: Q01DX005 (ip), vehicle: Klucel (hydroxypropylcellulose) (HPC) 97 % of control

O=C(CC(=O)c1ccc(Cl)c(Cl)c1)Cc1ccc2ccccc2n1
inactive: [7] 90 % of control | [8] 97 % of control | [9] 88 % of control

O=[N+]([O-])c1cc2[nH]cnc2c([N+](=O)[O-])c1N1CCOCC1
inactive: dose: 25.0 mg/kg/injection, schedule: Q04DX003 (ip), vehicle: saline with Tween-80 100 % of control | dose: 50.0 mg/kg/injection, schedule: Q04DX003 (ip), vehicle: saline with Tween-80 104 % of control | dose: 100.0 mg/kg/injection, schedule: Q04DX003 (ip), vehicle: saline with Tween-80 97 % of control

O=C(Nc1ccc(NC(=O)c2ccncc2)cc1)c1ccncc1
inactive: [14] 97 % of control | [15] 93 % of control | [16] 97 % of control

CCOP(=O)(Nc1ccccc1OC)OCC
inactive: [1] 104 % of control | [13] 110 % of control | [2] 107 % of control | dose: 200.0 mg/kg/injection, schedule: Q01DX001 (ip), vehicle: saline 105 % of control | [3] 100 % of control | dose: 400.0 mg/kg/injection, schedule: Q01DX001 (ip), vehicle: saline 102 % of control

N#Cc1nnc2cc(-c3ccccc3)nn2c1C1CC1
inactive: [17] 96 % of control | [18] 96 % of control | [19] 100 % of control

Oc1ccc(/C=N/N=C/c2ccc(O)c(O)c2)cc1O
inactive: [14] 121 % of control | [15] 106 % of control and 119 % of control | [16] 113 % of control | dose: 400.0 mg/kg/injection, schedule: Q01DX005 (ip), vehicle: saline with Tween-80 121 % of control

S=c1nc[nH]c2ccc3[nH]ncc3c12
inactive: dose: 6.25 mg/kg/injection, schedule: Q01DX005 (ip), vehicle: saline with Tween-80 93 % of control | dose: 12.5 mg/kg/injection, schedule: Q01DX005 (ip), vehicle: saline with Tween-80 90 % of control | dose: 25.0 mg/kg/injection, schedule: Q01DX005 (ip), vehicle: saline with Tween-80 92 % of control

C1=CC(=NN=P(c2ccccc2)(c2ccccc2)c2ccccc2)C=C1
inactive: dose: 50.0 mg/kg/injection, schedule: Q01DX009 (ip), vehicle: saline with Tween-80 89 % of control | dose: 100.0 mg/kg/injection, schedule: Q01DX009 (ip), vehicle: saline with Tween-80 102 % of control | dose: 200.0 mg/kg/injection, schedule: Q01DX009 (ip), vehicle: saline with Tween-80 97 % of control

CC(=O)C(/C=N/C(N)=O)=C(/C)O
inactive: dose: 50.0 mg/kg/injection, schedule: Q04DX003 (ip), vehicle: saline 100 % of control | dose: 100.0 mg/kg/injection, schedule: Q04DX003 (ip), vehicle: saline 100 % of control | dose: 200.0 mg/kg/injection, schedule: Q04DX003 (ip), vehicle: saline 110 % of control

O=C(NC(Cc1c[nH]c2ccccc12)C(=O)O)C(=O)c1c[nH]c2ccccc12 (centres undefined)
inactive: [7] 100 % of control | [8] 97 % of control | [9] 90 % of control

COC(=O)c1cccnc1C#N
inactive: dose: 30.0 mg/kg/injection, schedule: Q01DX005 (ip), vehicle: Klucel (hydroxypropylcellulose) (HPC) 100 % of control | [17] 110 % of control | [18] 102 % of control | [19] 112 % of control

CCN(CC)CCOc1ccc(/C=C(\C)C(C)=O)cc1
inactive: dose: 50.0 mg/kg/injection, schedule: Q01DX005 (ip), vehicle: saline 94 % of control | dose: 100.0 mg/kg/injection, schedule: Q01DX005 (ip), vehicle: saline 90 % of control

C#Cc1cccc(N=Cc2cc([N+](=O)[O-])cc(Br)c2O)c1
inactive: [14] 100 % of control | [15] 105 % of control | [16] 105 % of control

O=C1c2ccccc2C(=O)c2c1ccc(C1C(=O)c3ccccc3C1=O)c2-c1c(C2C(=O)c3ccccc3C2=O)ccc2c1C(=O)c1ccccc1C2=O
inactive: [7] 103 % of control | [8] 99 % of control | [9] 97 % of control
